Experiment [1] has as its target protein kinase C (PKC). Nature of the experiment: Enzyme test PKC with peptide substrate [Ser^25] PKC (19-31), phosphorus^32 phosphate incorporation. The experiment is classed as biochemical, rat. As to the method: The enzyme protein kinase C (PKC) is purified from rat brain. Its activity is determined by way of the incorporation of phosphorus ^32 -labelled phosphate into a synthetic peptide which is derived from the PKC "pseudosubstrate" sequence (arnino acids 19 to 31 of the PKC sequence with alanine in position 25 substituted by serine). A reaction batch of 200 μL contains the following components: 50 mM Tris HCl, pH 7.5, 5 mM MgCl2, 1 mM DTT, 4 μM free Ca^2+, 10 μM ATP, 1 μg phosphatidylserine, 0.2 μg 1,2-diolein, as well as 0.3 μg peptide substrate. The batch is preincubated for 4 minutes at 30° C. and the reaction then started by the addition of 5 nm PKC. After incubation for 5 minutes at 30° C., the reaction is stopped with 0.73% H3 PO4, and the sample then filtered over a nitrocellulose filter (0.1 μm pore size). The phosphate incorporation is determined by means of Cerenkov counting in a scintillation counter. […]

Experiment [2] concerns the target Myosin Light Chain Kinase. Nature of the experiment: Inhibition of myosin light chain kinase (selectivity test). As to conditions: Table 2; for IC50: Myosin Light Chain Kinase, read-out: Inhibition of the Protein Kinases IC50: MLC Kinase; for Ratio of IC50 MLC Kinase/IC50 C Kinase: selectivity ratio MLC Kinase over PKC. Format: biochemical. As to the method:
The selectivity of these compounds with regard to other kinases, such as myosin light chain kinase, was tested on the basis of some examples. These values are set out in the following Table 2.

Where [3] appears, read: Table 1, PKC purified from rat brain, 10 μM ATP, pH 7.5, 30° C., 5 minutes, read-out: Inhibition IC50, Enzyme Test PKC With Peptide Substrate [Ser^25] PKC (19-31).
[4] abbreviates: Table 2, PKC with peptide substrate [Ser^25] PKC (19-31), read-out: Inhibition of the Protein Kinases IC50: PKC.

Where two headings read alike, the source gives them in different places. Where a SMILES comes first, the peptide text is derived from it. The star is where a group is joined. X1 = Cn1cc(C2=C(c3cn(CCC(=O)*)c4ccccc34)C(=O)NC2=O)c2ccccc21

By IC50 is commonly meant the concentration that gives 50% inhibition. Consider “2-[(1-Methyl)-1H-indol-3-yl]-3-[1-(3-β-alanylamino-propyl)-1H-indol-3-yl]-maleinimide [Example 1a]”, for which the IC50 came to 6.3 nM in experiment [1] (setting [3]), 6.3 nM in experiment [1] (setting [4]) and 1900 nM in experiment [2]. The “Ratio of IC50 MLC Kinase/IC50 C Kinase” value in experiment [2] worked out at 302. Take `C[C@H](NC(=O)CNC(=O)[C@H](CO)NC(=O)CCn1cc(C2=C(c3cn(C)c4ccccc34)C(=O)NC2=O)c2ccccc21)C(N)=O` [Example 7d, 3-[3-[4-(1-methylindol-3-yl)-1H-pyrrole-2,5-dion-3-yl)-indol-1-yl)-propionyl-L-serylglycyl-L-alaninamide]: the 50% inhibitory concentration (IC50) in experiment [1] (setting [3]) is more than 1000 nM. `C[C@H](N)C(=O)NCCCCCCCCn1cc(C2=C(c3cn(C)c4ccccc34)C(=O)NC2=O)c2ccccc21` [Example 2f, 2-[(1-Methyl)-1H-indol-3-yl]-3-[1-(9-L-alanylaminooctyl)-1H-indol-3-yl)-maleinimide]: the 50% inhibitory concentration (IC50) in experiment [1] (setting [3]) turned out to be 330 nM. Still for that read-out and setting: for `C[C@H](N)C(=O)NCCC(=O)NCCCn1cc(C2=C(c3cn(C)c4ccccc34)C(=O)NC2=O)c2ccccc21` [Example 4a, 2-[(1-Methyl)-1H-indol-3-yl]-3-[1-[3-(L-alanyl-β-alanyl)-aminopropyl]-1H-indol-3-yl)-maleinimide] the value was 18 nM; for `C[C@H](N)C(=O)NCC(=O)NCCCn1cc(C2=C(c3cn(C)c4ccccc34)C(=O)NC2=O)c2ccccc21` [Example 4, 2-[(1-Methyl)-1H-indol-3-yl)-3-[1-[3-(L-alanylglycyl)-aminopropyl]-1H-indol-3-yl]], 36 nM; for `C[C@H](N)C(=O)NCCCCn1c2ccccc2c2c3c(c4c5ccccc5n(C)c4c21)C(=O)NC3=O` [Example 10, 12-[2-(4-L-Alanyl)-aminobutyl]-6,7,12,13-tetrahydro-13-methyl-5,7-dioxo-5H-indolo[2,3-a]pyrrolo[3,4-c]-carbazole], 9.6 nM.

Take `C[C@H](NC(=O)CCn1cc(C2=C(c3cn(C)c4ccccc34)C(=O)NC2=O)c2ccccc21)C(=O)O` [Example 5, 3-[3-[4-(1-Methylindol-3-yl)-1H-pyrrole-2,5-dion-3-yl]-indol-1-yl)-propionyl-L-alanine]: in experiment [1] (setting [3]), the IC50 amounted to 580 nM. On the same count and under the same terms, for “12-[2-(L-Alanyl-L-arginyl)-aminopropyl]-6,7,12,13-tetrahydro-13-methyl-5,7- dioxo-5H-indolo[2,3-a]pyrrolo-[3,4-c]carbazole [Example 9]” the value was 190 nM.

Turning to `Cn1cc(C2=C(c3cn(CCCN)c4ccccc34)C(=O)NC2=O)c2ccccc21` [A, 3[1(3-aminopropyl)-3-indolyl)-4-(1-methyl-3-indolyl)-1H-pyrrole-2,5-dione, reference compound], in experiment [1] (setting [4]), the IC50 is 130 nM. Besides, in experiment [2], the IC50 amounted to 1300 nM and the “Ratio of IC50 MLC Kinase/IC50 C Kinase” value is recorded as 10. On to `C[C@H](N)C(=O)NCCCCCn1cc(C2=C(c3cn(C)c4ccccc34)C(=O)NC2=O)c2ccccc21` [Example 2c, 2-[(1-Methyl)-1H-indol-3-yl]-3-[1-(5-L-alanylaminopentyl)-1H-indol-3-yl]-maleinimide], for which the IC50 in experiment [1] (setting [3]) is more than 100 nM. On to `Cn1cc(C2=C(c3cn(CCCNC(=O)[C@@H](N)CO)c4ccccc34)C(=O)NC2=O)c2ccccc21` [Example 1, 2-[(1-Methyl)-1H-indol-3-yl]-3-(1-(3-L-serylaminopropyl)-1H-indol-3-yl)-maleinimide], for which the values for the IC50 in experiment [1] (setting [3]), in experiment [1] (setting [4]) and in experiment [2] were 14 nM, 14 nM and 4600 nM, respectively. For the same molecule, the “Ratio of IC50 MLC Kinase/IC50 C Kinase” value in experiment [2] is 328. In the case of `C[C@H](N)C(=O)NCCCCn1cc(C2=C(c3cn(C)c4ccccc34)C(=O)NC2=O)c2ccccc21` [Example 2a, 2-[(1-Methyl)-1H-indol-3-yl]-3-[1-(4-L-alanylaminobutylyl)-1H-indol-3-yl)-maleinimide], the half-maximal inhibitory concentration (IC50) in experiment [1] (setting [3]) worked out at 25 nM. Same read-out and setting: to `Cn1cc(C2=C(c3cn(CCCCCCCCCNC(=O)[C@@H](N)CO)c4ccccc34)C(=O)NC2=O)c2ccccc21` [Example 2e, 2-[(1-Methyl)-1H-indol-3-yl]-3-[1-(9-L-serylaminononyl)-1H-indol-3-yl]-maleinimide] belongs more than 1000 nM. Consider `C[C@H](N)C(=O)NCCCCCCCCCn1cc(C2=C(c3cn(C)c4ccccc34)C(=O)NC2=O)c2ccccc21` [Example 2d, 2-[(l-Methyl)-1H-indol-3-yl]-3-[1-(9-L-alanylaminononyl)-1H-indol-3-yl)-maleinimide], for which the IC50 in experiment [1] (setting [3]) is more than 1000 nM. Regarding `Cn1cc(C2=C(c3cn(CCCNC(=O)CCN)c4ccccc34)C(=O)NC2=O)c2ccccc21` [Example 1b, 2-[(1-Methyl)-1H-indol-3-yl]-3-[1-(3-β-alanylaminopropyl)-1H-indol-3-yl]-maleinimide], the values for the IC50 in experiment [1] (setting [3]), in experiment [1] (setting [4]) and in experiment [2] were 23 nM, 23 nM and 2400 nM, respectively. The “Ratio of IC50 MLC Kinase/IC50 C Kinase” value in experiment [2] is 104. Turning to `Cn1cc(C2=C(c3cn(CCCNC(=O)CCCCNC(=O)[C@@H](N)CO)c4ccccc34)C(=O)NC2=O)c2ccccc21` [Example 3, 2-[(1-Methyl)-1H-indol-3-yl]-3-[1-[3-(5-L-serylaminopentanoyl)-aminopropyl)-1H-indol-3-yl)-maleinimide], the IC50 in experiment [1] (setting [3]) came to 61 nM. Still for that read-out and setting: to `Cn1cc(C2=C(c3cn(CCC(=O)NCC(=O)NCC(=O)N[C@@H](CO)C(N)=O)c4ccccc34)C(=O)NC2=O)c2ccccc21` [Example 7c, 3-[3-[4-(1-methylindol-3-yl)-1H-pyrrole-3,5-dion-3-yl]-indol-1-yl]-propionylglycylglycyl-L-serylamide] belongs 200 nM. On the same count and under the same terms, to `C[C@H](NC(=O)[C@H](Cc1ccccc1)NC(=O)[C@H](CCCNC(=N)N)NC(=O)[C@H](CC(N)=O)NC(=O)[C@H](CCCCN)NC(=O)CCn1cc(C2=C(c3cn(C)c4ccccc34)C(=O)NC2=O)c2ccccc21)C(N)=O` [Example 7a, 3-[3-[4-(1-methylindol-3-yl)-1H-pyrrole-2,5-dion-3-yl]-indol-1-yl)-propionyl-L-lysyl-L-asparaginyl-L-arginyl-L-phenylalanyl-L-alaninamide] (X1-KNRFA-NH2) belongs more than 100 nM; to `C[C@H](NC(=O)CCn1cc(C2=C(c3cn(C)c4ccccc34)C(=O)NC2=O)c2ccccc21)C(=O)NCC(=O)N[C@@H](CCCCN)C(N)=O` [Example 7, 3-[3-[4-(1-Methylindol-3-yl)-1H-pyrrole-2,5-dion-3-yl]-indol-1-yl)-propionyl-L-alanylglycyl-L-lysinamide], 230 nM; to `C[C@@H](N)C(=O)NCCCn1cc(C2=C(c3cn(C)c4ccccc34)C(=O)NC2=O)c2ccccc21` [Example 2, 2-[(1-Methyl)-1H-indol-3-yl)-3-[1-(3-D-alanylaminopropyl)-1H-indol-3-yl]-maleinimide], 28 nM. The same measure, in the same setting: for `C[C@H](N)C(=O)NCCCn1c2ccccc2c2c3c(c4c5ccccc5n(C)c4c21)C(=O)NC3=O` [Example 8, 12-[2-(3-L-Alanyl)-aminopropyl)-6,7,12,13-tetrahydro-13-methyl-5,7-dioxo-5H-indolo[2,3-a]pyrrolo[3,4-c]-carbazole] the value was 38 nM. `Cn1cc(C2=C(c3cn(CCCCNC(=O)[C@@H](N)CCCNC(=N)N)c4ccccc34)C(=O)NC2=O)c2ccccc21` [Example 2b, 2-[(1-Methyl)-1H-indol-3-yl]-3-[1-(4-L-arginylaminobutyl)-1H-indol-3-yl]-maleinimide]: the IC50 in experiment [1] (setting [3]) was found to be 220 nM. Still for that read-out and setting: to `C[C@H](NC(=O)CNC(=O)CNC(=O)CCn1cc(C2=C(c3cn(C)c4ccccc34)C(=O)NC2=O)c2ccccc21)C(N)=O` [Example 7b, 3-[3-[4-(1-methylindol-3-yl)-1H-pyrrole-2,5-dion-3-yl]-indol-1-yl)-propionylglycylglycyl-L-alaninamide] belongs more than 100 nM. Same read-out and setting: for `C[C@H](N)C(=O)NCCCCCn1c2ccccc2c2c3c(c4c5ccccc5n(C)c4c21)C(=O)NC3=O` [Example 10a, 12-[2-(5-L-alanyl)-aminopentyl]-6,7,12,13-tetrahydro-13-methyl-5,7-dioxo-5H-indolo[2,3-a]pyrrolo-[3,4-c]carbazole] the value was 53 nM.
